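These data come from cells grown in 96-well plates and exposed to compound for 48 hours at five concentrations. GI50 is the concentration that inhibits growth by half.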 The source made the active and inactive calls. Rule as the data show it: active = GI50 up to about 1.1 µM and inactive = higher.
Tests used:
Assay in all cases: NCI tumour cell line growth inhibition, 48 h
SNB-75 = test system: SNB-75
SF-268 = test system: SF-268
SK-MEL-28 = test system: SK-MEL-28
M14 = test system: M14
RXF 393 = test system: RXF 393
K562 = test system: K562
UO-31 = test system: UO-31
CCRF-CEM = test system: CCRF-CEM
HOP-62 = test system: HOP-62
SR = test system: SR
NCI-H522 = test system: NCI-H522
EKVX = test system: EKVX
OVCAR-4 = test system: OVCAR-4
NCI-H23 = test system: NCI-H23
OVCAR-5 = test system: OVCAR-5
UACC-62 = test system: UACC-62
A498 = test system: A498
U-251 = test system: U-251
KM12 = test system: KM12
MDA-MB-231 = test system: MDA-MB-231

| SMILES | GI50 (SNB-75) | GI50 (SF-268) | GI50 (SK-MEL-28) | GI50 (M14) | GI50 (RXF 393) | GI50 (K562) | GI50 (UO-31) | GI50 (CCRF-CEM) | GI50 (HOP-62) | GI50 (SR) | GI50 (NCI-H522) | GI50 (EKVX) | GI50 (OVCAR-4) | GI50 (NCI-H23) | GI50 (OVCAR-5) | GI50 (UACC-62) | GI50 (A498) | GI50 (U-251) | GI50 (KM12) | GI50 (MDA-MB-231) |
| --- | --- | --- | --- | --- | --- | --- | --- | --- | --- | --- | --- | --- | --- | --- | --- | --- | --- | --- | --- | --- |
| Nc1ccccc1C(=O)CCC1C(=O)NC(=S)NC1=O | 43.8 µM (inactive) | > 100 µM (inactive) | > 100 µM (inactive) | > 100 µM (inactive) | > 100 µM (inactive) | > 100 µM (inactive) | > 100 µM (inactive) | > 100 µM (inactive) | > 100 µM (inactive) | > 100 µM (inactive) | > 100 µM (inactive) | > 100 µM (inactive) | > 100 µM (inactive) | > 100 µM (inactive) | > 100 µM (inactive) | > 100 µM (inactive) | > 100 µM (inactive) | > 100 µM (inactive) | > 100 µM (inactive) |  |
| CC(=O)O/C(C)=C\C(=O)O/N=C(\N)c1ccc(C)cc1 | 19.2 µM (inactive) | 29.8 µM (inactive) | 19.6 µM (inactive) | 28.4 µM (inactive) | 27.4 µM (inactive) | 19.6 µM (inactive) | 61.1 µM (inactive) | 17.3 µM (inactive) | 33.1 µM (inactive) | 20.5 µM (inactive) | 21 µM (inactive) | 92.3 µM (inactive) | 25.8 µM (inactive) | 22.2 µM (inactive) | > 100 µM (inactive) | 22.7 µM (inactive) | 62.7 µM (inactive) | 19.5 µM (inactive) | 41.8 µM (inactive) |  |
| CC(C(=O)O)/C(=C\c1ccc2c(c1)OCO2)C(=O)O (stereo not given) | > 100 µM (inactive) | > 100 µM (inactive) | > 100 µM (inactive) | > 100 µM (inactive) | > 100 µM (inactive) | > 92.5 µM (inactive) | > 100 µM (inactive) |  | > 100 µM (inactive) |  | > 100 µM (inactive) | > 53.6 µM (inactive) | > 100 µM (inactive) | > 100 µM (inactive) | > 10 µM (inactive) | > 100 µM (inactive) | > 100 µM (inactive) | > 100 µM (inactive) | > 100 µM (inactive) | > 100 µM (inactive) |
| c1ccc(C2CC(c3ccc4ccccc4c3)=Nc3ccccc3S2)cc1 (stereo not given) | 15.6 µM (inactive) | 17 µM (inactive) | 18.3 µM (inactive) | 15.8 µM (inactive) | 19.1 µM (inactive) | 20 µM (inactive) | 12.5 µM (inactive) | 26.1 µM (inactive) | 17.1 µM (inactive) | 23.7 µM (inactive) | 17 µM (inactive) | 23.2 µM (inactive) | 19.5 µM (inactive) | 14.8 µM (inactive) | 21.8 µM (inactive) | 16.9 µM (inactive) | 17.3 µM (inactive) | 17.3 µM (inactive) | 17.7 µM (inactive) |  |
| CN(C)C(=S)N/N=C\C=N/NC(=S)N(C)C | 1.75 µM (inactive) | 0.112 µM (active) | 0.552 µM (active) | 0.139 µM (active) | 0.277 µM (active) | 23.9 µM (inactive) | 0.237 µM (active) |  | 0.129 µM (active) |  | 0.22 µM (active) | 0.479 µM (active) | 0.148 µM (active) | 1.63 µM (inactive) | 31.8 µM (inactive) | 0.802 µM (active) | 0.643 µM (active) | 0.0614 µM (active) | 0.525 µM (active) | > 100 µM (inactive) |
| O=C1CC(C[C@H](O)C2CCCCC2O)CC(=O)N1Cc1ccccc1 (stereo not given in full) | > 100 µM (inactive) | > 100 µM (inactive) | > 100 µM (inactive) | > 100 µM (inactive) | > 100 µM (inactive) | > 100 µM (inactive) | > 100 µM (inactive) | > 100 µM (inactive) | > 100 µM (inactive) | > 100 µM (inactive) | > 100 µM (inactive) | > 100 µM (inactive) | > 100 µM (inactive) | > 100 µM (inactive) | > 100 µM (inactive) | > 100 µM (inactive) | > 100 µM (inactive) | > 100 µM (inactive) | > 100 µM (inactive) |  |
| CCN(CC)CCO/N=C1/C=C2CCC3C(CC[C@@]4(C)C3CC[C@]4(C)O)[C@@]2(C)CC1 (stereo not given in full) | 2.89 µM (inactive) | 8.09 µM (inactive) |  | 8.79 µM (inactive) | 15.5 µM (inactive) | 4.48 µM (inactive) | 5.41 µM (inactive) | 1.29 µM (inactive) | 4.06 µM (inactive) |  | 2.16 µM (inactive) | 6.21 µM (inactive) | 17.5 µM (inactive) | 6.75 µM (inactive) | 16.5 µM (inactive) | 2.76 µM (inactive) | 0.195 µM (active) | 3.44 µM (inactive) | 5.43 µM (inactive) | 14.1 µM (inactive) |
| CCCS(=O)(=O)/C(=C(\c1ccc(Br)cc1)S(=O)(=O)CCC)c1ccc(Br)cc1 | > 10 µM (inactive) | > 10 µM (inactive) | > 10 µM (inactive) | > 10 µM (inactive) | > 10 µM (inactive) | > 10 µM (inactive) | > 10 µM (inactive) | > 10 µM (inactive) | > 10 µM (inactive) | > 10 µM (inactive) | > 10 µM (inactive) | > 10 µM (inactive) | > 10 µM (inactive) | > 10 µM (inactive) | > 10 µM (inactive) | > 10 µM (inactive) | > 10 µM (inactive) | > 10 µM (inactive) | > 10 µM (inactive) |  |
| S=C=NC1CCC(c2cc3ccccc3s2)(N2CCCCC2)CC1 (stereo not given) | 1.87 µM (inactive) | 2.08 µM (inactive) | 1.6 µM (inactive) | 1.86 µM (inactive) | 1.72 µM (inactive) | 0.0546 µM (active) | 2.19 µM (inactive) | 0.577 µM (active) | 2.07 µM (inactive) | 0.071 µM (active) | 1.63 µM (inactive) | 2.16 µM (inactive) | 1.87 µM (inactive) | 1.92 µM (inactive) | 1.75 µM (inactive) | 1.76 µM (inactive) | 2.26 µM (inactive) |  | 1.87 µM (inactive) |  |
| O=[N+]([O-])C(/C(Cl)=C(/Cl)N1CCOCC1)=C1\Nc2ccccc2O1 | > 100 µM (inactive) | 28.9 µM (inactive) | > 100 µM (inactive) | > 100 µM (inactive) |  | > 100 µM (inactive) | > 100 µM (inactive) | > 100 µM (inactive) | > 100 µM (inactive) |  |  | > 100 µM (inactive) | > 100 µM (inactive) | > 100 µM (inactive) | > 100 µM (inactive) | 96.2 µM (inactive) | > 100 µM (inactive) | 86.9 µM (inactive) | > 100 µM (inactive) | > 100 µM (inactive) |
| CCOC(=O)C1=C(C)N(Cc2ccccc2)C(C)=C(C(=O)OCC)C1c1ccccc1O | 27.5 µM (inactive) | 32.4 µM (inactive) | 19.2 µM (inactive) | 33.7 µM (inactive) | 18.7 µM (inactive) | 33.4 µM (inactive) | 32.1 µM (inactive) | 27 µM (inactive) | 31.5 µM (inactive) | 15.9 µM (inactive) | 25.6 µM (inactive) | 24.7 µM (inactive) | 34.8 µM (inactive) | 24 µM (inactive) | > 100 µM (inactive) | 18.1 µM (inactive) | 33.7 µM (inactive) | 39.4 µM (inactive) | 23.7 µM (inactive) |  |
| CCN(CC)CCNc1ccc2ncn3c4ccc(OC)cc4c(=O)c1c23 | 7.08 µM (inactive) | 2.21 µM (inactive) | 14.3 µM (inactive) | 5.21 µM (inactive) | 2.23 µM (inactive) | 2.75 µM (inactive) | 1.82 µM (inactive) | 1.34 µM (inactive) | 5.21 µM (inactive) | 1.85 µM (inactive) | 2.32 µM (inactive) | 14.9 µM (inactive) | 1.74 µM (inactive) | 4.79 µM (inactive) | 8.61 µM (inactive) | 16 µM (inactive) | 6.7 µM (inactive) | 1.38 µM (inactive) | 1.78 µM (inactive) |  |
| N#CC(c1nc2ccccc2s1)c1ncnc(Cl)c1[N+](=O)[O-] (stereo not given) | 22.9 µM (inactive) | 17.5 µM (inactive) | 19.9 µM (inactive) | 17.5 µM (inactive) | 25.5 µM (inactive) |  | 27.9 µM (inactive) | 0.361 µM (active) | 28.8 µM (inactive) |  | 18.9 µM (inactive) | 23.2 µM (inactive) | 27.7 µM (inactive) | 16.5 µM (inactive) | 24.3 µM (inactive) |  | > 100 µM (inactive) | 32.7 µM (inactive) | 32.5 µM (inactive) | 30.8 µM (inactive) |
| COC(=O)C(CCSC)NC(=O)CNC(=O)CSc1nnc(COc2ccc(Cl)cc2)n1-c1ccccc1 (stereo not given) | 19.1 µM (inactive) | 17.1 µM (inactive) | 17.5 µM (inactive) | 19.5 µM (inactive) | 18.6 µM (inactive) | 26.5 µM (inactive) | 10.4 µM (inactive) | 7.83 µM (inactive) | 17.1 µM (inactive) |  |  |  | 19.3 µM (inactive) | 16.6 µM (inactive) | 19 µM (inactive) | 16.7 µM (inactive) | 29.1 µM (inactive) | 17.3 µM (inactive) | 20.2 µM (inactive) | 16 µM (inactive) |
| CC(Cl)(/C=C/Cl)C(Cl)/C=C/C(Cl)(CCl)CBr (stereo not given) | 3.17 µM (inactive) | 2.09 µM (inactive) | 2.24 µM (inactive) | 2.54 µM (inactive) | 1.45 µM (inactive) | 1.65 µM (inactive) | 14.5 µM (inactive) | 0.305 µM (active) | 24.3 µM (inactive) | 0.191 µM (active) | 1.45 µM (inactive) | 31.8 µM (inactive) | 3.05 µM (inactive) | 1.88 µM (inactive) | 16 µM (inactive) | 1.68 µM (inactive) | 13.5 µM (inactive) | 3.72 µM (inactive) | 6.64 µM (inactive) |  |
